Columns and labels:
[1] = cited from earlier work; for Water solubility: at 25 C.; for VP: at 25 deg C.
rats [2] = experiment: acute oral toxicity in rats (LD50); format: in vivo, rat; conditions: weight for weight basis
[3] = tested on: Common garden slugs (Arion distinctus); experiment: slug mucosal contact test (mucus production and body weight loss); format: in vivo; conditions: for Mucus loss initial test / Mucus loss 24 test: 30-min contact, % of body weight; for Mucus loss initial test: 60 mg test substance, mean n = 6, initial treatment; for Mucus loss 24 test: second treatment 24 hours later; for Mucus loss 24 test / Remaining body weight after 24 h and 48 h: mean n = 6; for Potency - loss of body weight relative to metaldehyde after deduction of weight loss from the control: after 48 hours; for Potency - loss of body weight relative to metaldehyde after deduction of weight loss from the control / Potency - loss of mucus relative to metaldehyde: metaldehyde = 100; for Combined mucus loss: combined losses of mucus for the two tests; for toxicity in mollusc foot contact tests relative to metaldehyde: contact with the mucus membrane of molluscs; for Potency - loss of mucus relative to metaldehyde: from combined mucus loss; for Remaining body weight after 24 h and 48 h: percentage of the initial body weight; for Reduction in toxic response relative to metaldehyde: Loss of body weight (Table 3) / Reduction in toxic response relative to metaldehyde: Loss of mucus (Table 2): weight for weight basis
Description: To investigate relative toxicity of aldehydes to molluscs, tests were conducted using a method adapted from Adriaens et al. The Mucosal Toxicity of Different Benzalkonium Chloride Analogues Evaluated with an Alternative Test. Pharmaceutical Research, Vol. 18, pages 937-941, 2001.
Common garden slugs (Arion distinctus) weighing between 1.9 g and 5.2 g were collected from a UK suburban garden and placed into vented plastic boxes lined with paper towels moistened with phosphate buffered saline. The boxes were kept in the shade inside a greenhouse (10° C. minimum) and fed with lettuce and commercial dog food. Experiments were conducted on six slugs for each test treatment using petri dishes containing Whitman Grade 1 general purpose filter papers (90 mm diameter). Filter papers were wetted to saturation with phosphate buffered saline (pH 7.4) and allowed to drain before placing in the petri dishes. At the beginning of each test slugs were placed individually in a petri dish which had been prepared 3 hours previously as a control or with 60 mg of the test substance consisting of fine powdered metaldehyde or a liquid aldehyde. After 30-min incubation slugs were removed and returned to petri dishes with filter papers wetted only with the phosphate buffered saline. The slugs were weighed separately before and after treatment. The change in weight caused by the treatment was calculated and expressed as % (w/w) of the body weight. The petri dishes containing the test medium were also weighed before and after the treatment. The weight of mucus produced was calculated and expressed as % (w/w) of the body weight. The treatment and measurements were repeated 24 hour later and final weights taken after a second 24 hour period.

rats [4] = conditions: cited from earlier work

CCCCCCCCCC=O [1-decanal]
Water solubility [1]: 43.52 µg/mL | VP [1]: 0.235 mm Hg | oral toxicity in rats lower relative to metaldehyde (rats [2]): approximately 8 fold | Mucus loss initial test [3]: 3.28 % w/w | Mucus loss 24 test [3]: 2.64 % w/w | Potency - loss of body weight relative to metaldehyde after deduction of weight loss from the control [3]: 40% | Combined mucus loss [3]: 5.92 % w/w | toxicity in mollusc foot contact tests relative to metaldehyde [3]: less than single fold reductions | Potency - loss of mucus relative to metaldehyde [3]: 62% | Remaining body weight after 24 h and 48 h ([3]; 24 h after initial treatment): 79.7 wt % | Remaining body weight after 24 h and 48 h ([3]; 48 h after initial treatment): 74.1 wt % | Reduction in toxic response relative to metaldehyde: Loss of body weight (Table 3) [3]: 0.40 | Reduction in toxic response relative to metaldehyde: Loss of mucus (Table 2) [3]: 0.62 | LD50 acute oral toxicity (rats [4]): LD 50 3096 mg/kg

CCCCCCC=O [1-heptanal]
Water solubility [1]: 1167 µg/mL | VP [1]: 3.52 mm Hg | oral toxicity in rats lower relative to metaldehyde (rats [2]): approximately 8 fold | Mucus loss initial test [3]: 2.77 % w/w | Mucus loss 24 test [3]: 0.55 % w/w | Potency - loss of body weight relative to metaldehyde after deduction of weight loss from the control [3]: 33% | Combined mucus loss [3]: 3.32 % w/w | toxicity in mollusc foot contact tests relative to metaldehyde [3]: less than single fold reductions | Potency - loss of mucus relative to metaldehyde [3]: 35% | Remaining body weight after 24 h and 48 h ([3]; 24 h after initial treatment): 85.2 wt % | Remaining body weight after 24 h and 48 h ([3]; 48 h after initial treatment): 76.5 wt % | Reduction in toxic response relative to metaldehyde: Loss of body weight (Table 3) [3]: 0.35 | Reduction in toxic response relative to metaldehyde: Loss of mucus (Table 2) [3]: 0.35 | LD50 acute oral toxicity (rats [4]): LD50 > 5000 mg/kg

CCCCCCCCC=O [1-nonanal]
VP [1]: 0.564 mm Hg | LD50 acute oral toxicity (rats [4]): LD 50 > 5000 mg/kg

CCCCCCCC=O [1-octanal]
Water solubility [1]: 394.3 µg/mL | VP [1]: 1.49 mm Hg | oral toxicity in rats lower relative to metaldehyde (rats [2]): approximately 8 fold | Mucus loss initial test [3]: 3.82 % w/w | Mucus loss 24 test [3]: 2.98 % w/w | Potency - loss of body weight relative to metaldehyde after deduction of weight loss from the control [3]: 58% | Combined mucus loss [3]: 6.8 % w/w | toxicity in mollusc foot contact tests relative to metaldehyde [3]: less than single fold reductions | Potency - loss of mucus relative to metaldehyde [3]: 72% | Remaining body weight after 24 h and 48 h ([3]; 24 h after initial treatment): 78.6 wt % | Remaining body weight after 24 h and 48 h ([3]; 48 h after initial treatment): 68.7 wt % | Reduction in toxic response relative to metaldehyde: Loss of body weight (Table 3) [3]: 0.58 | Reduction in toxic response relative to metaldehyde: Loss of mucus (Table 2) [3]: 0.72 | LD50 acute oral toxicity (rats [4]): LD 50 4616 mg/kg

CC=O [Acetaldehyde, reference compound]
VP [1]: 902 mm Hg | LD50 acute oral toxicity (rats [4]): LD50 661 mg/kg

CCCC=O [Butanal]
VP [1]: 108 mm Hg

CCCCCC=O [Hexanal]
VP [1]: 9.57 mm Hg

CC1OC(C)OC(C)OC(C)O1 (stereo not shown) [Metaldehyde, reference compound]
VP [1]: 0.000674 mm Hg | Mucus loss initial test [3]: 5.55 % w/w | Mucus loss 24 test [3]: 3.94 % w/w | Potency - loss of body weight relative to metaldehyde after deduction of weight loss from the control [3]: 100% | Combined mucus loss [3]: 9.49 % w/w | Potency - loss of mucus relative to metaldehyde [3]: 100% | Remaining body weight after 24 h and 48 h ([3]; 24 h after initial treatment): 68.5 wt % | Remaining body weight after 24 h and 48 h ([3]; 48 h after initial treatment): 55.4 wt % | LD50 acute oral toxicity (rats [4]): LD50 630 mg/kg

CC1OC(C)OC(C)O1 (stereo not shown) [Paraldehyde, reference compound]
Water solubility [1]: 24140 µg/mL | VP [1]: 15.7 mm Hg | LD50 acute oral toxicity (rats [4]): LD 50 2711 mg/kg

CCC=O [Propanal, reference compound]
VP [1]: 317 mm Hg

Source: patent US20190373887A1, “ENCAPSULATED MOLUSCICIDE” (INGWERMAT LIMITED, priority 2015, published 2019)
